Measured values from patent US20080248008A1, “Inhibitors of Protein Kinase a Anchoring” (priority 2004, published 2008).
Each block holds one molecule with its values, some of them ahead of it.

Assays:
Lck-PY505 = Lck-PY505 level in lipid rafts of forskolin-stimulated T cells; assay type: cell-based, human; settings: 25 μM, 12 hours, n=3
Experimental: Antibodies. RI or RII were immunoprecipitated with polyclonal antibodies against human RI or human RII at a 3 μg/ml dilution (Santa Cruz Biotechnology). MEME3 or scrambled peptide was immunoprecipitated with 1.5 μl of anti-GFP antiserum (Invitrogen). Monoclonal (Transduction laboratories) or polyclonal antibodies (Santa Cruz Biotechnology) against human RIα and RIIα were used at a 1 μg ml^−1 or 0.5 μg ml^−1 ilution for Western blotting. Polyclonal antibodies against human Cα (Santa Cruz Biotechnology) and LAT (Upstate Biotechnology) were used at a 0.4 μg ml^−1 and a 1 μg ml^−1 dilution for Western blotting, respectively. Polyclonal antibodies against LckPY505 (Cell Signaling) were used at a 1:1000 dilution and polyclonal antibody raised towards PS364 in Csk were used as previously described (Yaqub et al., Biochem. J., 372: p 271-8, 2003). Polyclonal antibodies against StAR (Affinity BioReagents) were used at 1 μg ml^−1. […]
Peripheral blood T cells were incubated in the absence (FIG. 20, A) or presence of 25 μM MEME3-Arg11 (B) or 25 μM SM3-Arg11 (C) for 12 hours and stimulated with forskolin to activate the PKA-Csk inhibitory pathway. […] Next, fractions were analysed by 10% PAGE, blotting onto a PVDF membrane and immunoblotting using phosphospecific antibodies to Lck-PY505 (FIG. 20, panels A-C).

[1] = biological target: T1, membrane localized RI in Jurkat T cells (Homo sapiens, UniProt P10644); experiment: Immunofluorescence of RI localisation in Jurkat T cells; assay type: cell-based
T1 construct: endogenous in cells; host or cells: Jurkat T cells

RII = biological target: T2, RII (Mus musculus, UniProt P12367); experiment: R-overlay (solid-phase binding) of 32P-labelled RII on membrane-synthesized peptides; set-up: species or system murine
T2 construct: His tag; made in house; host or cells: E. coli BL21 (B121 [sic])
T2 sequence (P12367 whole entry): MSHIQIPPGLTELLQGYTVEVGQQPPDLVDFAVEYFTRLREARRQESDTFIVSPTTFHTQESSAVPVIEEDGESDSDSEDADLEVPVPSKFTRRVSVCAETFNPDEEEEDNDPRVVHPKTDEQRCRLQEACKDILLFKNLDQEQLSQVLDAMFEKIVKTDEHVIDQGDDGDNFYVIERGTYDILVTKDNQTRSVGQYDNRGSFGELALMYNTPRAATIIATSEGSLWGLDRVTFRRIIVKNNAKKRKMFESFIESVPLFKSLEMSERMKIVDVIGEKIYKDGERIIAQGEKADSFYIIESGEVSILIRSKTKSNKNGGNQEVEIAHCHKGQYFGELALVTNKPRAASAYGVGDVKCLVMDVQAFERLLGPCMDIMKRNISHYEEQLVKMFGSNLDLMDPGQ
Experimental: Autospot Peptide Array. Peptide arrays were synthesized on cellulose paper by using an Autospot Robot ASP222 (ABiMED, Langenfeld, Germany) as described (Frank, R., 1992, Tetrahedron 48, 123-132) or Multipep automated peptide synthesizer (INTAVIS Bioanalytical Instruments AG, Koeln, Germany) as described (Frank, R., 1992, Tetrahedron 48, 123-132).
R-overlay. R-overlays were conducted as described, using ^32P-labeled recombinant murine RII (Hausken, Z. E., et al., 1998 in Protein Targeting Protocols, ed. Clegg, R. A. (Humana, Totowa, N.J.), Vol. 88, pp. 47-64) or recombinant bovine RI (A98S) or by cold RI-overlay where bound RIα was detected by Western blot. Cold RI-overlay was performed by incubating the membranes with 250 nM RI overnight at 4° C., then the membranes were washed five times in TBST for 5 min. Detection of RI was performed using an anti-RI rabbit polyclonal antibody (Santa Cruz) at a concentration of 0.2 μg/μl for 1 hour at 4° C. Then the membranes were washed five times for 5 minutes in PBS followed by incubation with HRP-conjugated anti-rabbit IgGs (1:5000) for 1 hour at 4° C. […]
Densitometric analysis. The densitometric analysis was performed using Scion Image (www.scioncorp.com) (Scion Coorperation, Mo., USA) or Quantity One version 4.5.0, (BioRad).

RIα = biological target: T3, RIα (Bos taurus, UniProt P00514); experiment: Fluorescence polarization, dissociation constant for RI; assay type: binding, bovine; settings: qualitative
T3 construct: made in house; host or cells: E. coli BL21 (B121 [sic])
T3 sequence (P00514 whole entry): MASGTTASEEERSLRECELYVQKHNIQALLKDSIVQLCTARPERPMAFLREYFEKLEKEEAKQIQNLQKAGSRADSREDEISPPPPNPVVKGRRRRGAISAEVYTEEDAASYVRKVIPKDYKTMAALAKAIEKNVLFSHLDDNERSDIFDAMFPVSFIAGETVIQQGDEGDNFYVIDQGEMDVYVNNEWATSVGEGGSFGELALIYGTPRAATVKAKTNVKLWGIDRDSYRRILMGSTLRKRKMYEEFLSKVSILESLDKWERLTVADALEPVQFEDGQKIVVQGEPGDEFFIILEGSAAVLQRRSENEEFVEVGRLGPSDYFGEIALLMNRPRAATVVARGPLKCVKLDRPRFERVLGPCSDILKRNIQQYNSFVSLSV
Experimental: Fluorescence Polarization. FITC-labeled peptides (SynPep, San Diego) that were used for fluorescence polarization studies included MEME3 (LEQYANQLADQIIKEATEK(5-Carboxyfluorescein)-CONH2) and MEME3 scrambled peptide (IEKELAQQYQNADAITLEK(5-Carboxyfluorescein)-CONH2). Peptides (0.5 nM for RI experiments and 1 nM for RII experiments) were suspended to working dilutions in phosphate-buffered saline containing 5 μg/μl BSA, pH 7.0. Increasing concentrations of recombinant bovine RI wt or recombinant murine RII were added to a PBS solution and mixed with each FITC-labeled peptide. Each sample was incubated for 2.5 hours. Fluorescence polarization was measured on a Beacon 2000 (Panvera, Madison, Wis.), following the manufacturer's instructions. Saturation binding curves were generated with PRISM graphing software (GraphPad, San Diego). Dissociation constants (Kd) were calculated from the nonlinear regression curve from averages of minimum three individual experiments.
Protein expression and purification. Human RI, Bovine RI and N-terminal deletions thereof or murine RII was expressed in E. coli B121 by IPTG induction. The RI containing pellet was incubated in lysis buffer (10 mM MOPS, pH 6.5, 100 mM NaCl, 10 μM DTT added protease inhibitors) and sonicated (Branson Sonifier 250) for 1 minute in three intervals at 0° C. […]

Molecule: LEQYANQLADQIIKEATERRRRRRRRRrr [MEME3-Arg11]
reduction of LckPY505 levels compared to SM3-Arg11 treated cells (Lck-PY505): 60% | displacement of membrane localized RI ([1]; 1 μM): some displacement of RI from cell membrane | displacement of membrane localized RI ([1]; 5 μM): All membrane localized RI was displaced and was delocalised

Molecule: CC[C@H](C)[C@H](NC(=O)[C@H](CCC(N)=O)NC(=O)[C@H](CC(=O)O)NC(=O)[C@H](C)NC(=O)[C@H](CC(C)C)NC(=O)[C@H](CCC(N)=O)NC(=O)[C@H](CC(N)=O)NC(=O)[C@H](C)NC(=O)[C@H](Cc1ccc(O)cc1)NC(=O)[C@H](CCC(N)=O)NC(=O)[C@H](CCC(=O)O)NC(=O)[C@@H](N)CC(C)C)C(=O)N[C@H](C(=O)N[C@@H](CCCCN)C(=O)N[C@@H](CCC(=O)O)C(=O)N[C@@H](C)C(=O)N[C@H](C(=O)N[C@@H](CCC(=O)O)C(=O)N[C@@H](CCCCNC(=O)c1ccc2c(c1)C(=O)OC21c2ccc(O)cc2Oc2cc(O)ccc21)C(N)=O)[C@@H](C)O)[C@@H](C)CC [MEME3]
affinity for RII compared to PDSM (RII; densitometry of autoradiographs, lower): 0.5 times | competition of RII binding to an RII specific binding sequence (RII; up to 100 μM peptide in solution): not able to compete the RII binding

interaction with RI subunit (RIα): No RIα binding | interaction with RI subunit (RIα; listed as control peptide): did not interact with either R subunit
Molecule: IEKELAQQYQNADAITLE [SM3, scrambled MEME3 negative control peptide, reference compound]
